US6727266B2, “Substituted tryptophan derivatives” (Shionogi & Co., Ltd., priority 2000, dated 2004)

Assays:
[1] = molecular target: T1, MMP-2 (Homo sapiens, UniProt P08253); assay: Assay for inhibitory activities on MMP-2 (fluorogenic MOCAc peptide substrate); format: biochemical; conditions: MMP-2 purchased from Calbiochem-Novabiochem
T1 construct: purchased Calbiochem-Novabiochem International, Inc
T1 sequence (P08253 110-660): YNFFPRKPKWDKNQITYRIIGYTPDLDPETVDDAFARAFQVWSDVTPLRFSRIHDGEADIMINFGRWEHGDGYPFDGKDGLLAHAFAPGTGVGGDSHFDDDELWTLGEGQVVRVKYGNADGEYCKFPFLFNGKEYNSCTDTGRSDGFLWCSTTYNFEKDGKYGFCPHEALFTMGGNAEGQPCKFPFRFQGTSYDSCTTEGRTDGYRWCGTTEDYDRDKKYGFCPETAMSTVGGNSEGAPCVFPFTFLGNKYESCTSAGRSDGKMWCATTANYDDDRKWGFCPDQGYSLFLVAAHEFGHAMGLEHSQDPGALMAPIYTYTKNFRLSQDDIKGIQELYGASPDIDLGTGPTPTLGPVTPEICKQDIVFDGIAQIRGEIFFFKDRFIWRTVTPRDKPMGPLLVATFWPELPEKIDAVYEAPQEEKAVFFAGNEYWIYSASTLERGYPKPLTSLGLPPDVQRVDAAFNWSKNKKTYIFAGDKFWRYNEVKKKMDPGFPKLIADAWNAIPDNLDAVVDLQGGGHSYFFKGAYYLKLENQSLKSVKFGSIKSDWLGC
Method: MMP-2 was purchased from Calbiochem-Novabiochem International, Inc.
(§1) The enzymatic activity on each MMP was analyzed by the method described in “C Graham Knight, Frances Willenbrock and Gillian Murphy: A novel coumarin-labelled peptide for sensitive continuous assays of the matrix metalloproteinases: FEBS LETT., 296, (1992), 263-266”. The substrate: MOCAc-Pro-Leu-Gly-Leu-A2Pr(DNP)-Ala-Arg-NH2 was purchased from Peptide Institute, Inc., Osaka, Japan.
(§2) The measurement of the inhibitory activities of a compound (inhibitor) was carried out by the following four methods;
(§3) A) Reaction with substrate, enzyme (MMPs) and inhibitor
(§4) B) Reaction with substrate and inhibitor, without enzyme
(§5) C) Reaction with substrate and enzyme (MMPs), without inhibitor
(§6) D) Reaction with substrate only
(§7) Each fluorescence values of above four methods was measured and % inhibition was calculated by using the following formula.
(§8) % inhibition={1−(A−B)/(C−D)}×100
(§9) IC50 means the concentration required to inhibit 50% of the enzyme activity.

[2] = molecular target: T2, MMP-9 (Homo sapiens, UniProt P14780); assay: Assay for inhibitory activities on MMP-9 (fluorogenic MOCAc peptide substrate); format: biochemical; conditions: MMP-9 purified from human fibrosarcoma HT1080 cells, activated by TPCK-Trypsin
T2 construct: made in house; host or cells: Endogenous secretion by human fibrosarcoma HT1080 cells (ATCC) treated with TPA; purified from the culture medium
T2 sequence (P14780 107-707 limits assumed): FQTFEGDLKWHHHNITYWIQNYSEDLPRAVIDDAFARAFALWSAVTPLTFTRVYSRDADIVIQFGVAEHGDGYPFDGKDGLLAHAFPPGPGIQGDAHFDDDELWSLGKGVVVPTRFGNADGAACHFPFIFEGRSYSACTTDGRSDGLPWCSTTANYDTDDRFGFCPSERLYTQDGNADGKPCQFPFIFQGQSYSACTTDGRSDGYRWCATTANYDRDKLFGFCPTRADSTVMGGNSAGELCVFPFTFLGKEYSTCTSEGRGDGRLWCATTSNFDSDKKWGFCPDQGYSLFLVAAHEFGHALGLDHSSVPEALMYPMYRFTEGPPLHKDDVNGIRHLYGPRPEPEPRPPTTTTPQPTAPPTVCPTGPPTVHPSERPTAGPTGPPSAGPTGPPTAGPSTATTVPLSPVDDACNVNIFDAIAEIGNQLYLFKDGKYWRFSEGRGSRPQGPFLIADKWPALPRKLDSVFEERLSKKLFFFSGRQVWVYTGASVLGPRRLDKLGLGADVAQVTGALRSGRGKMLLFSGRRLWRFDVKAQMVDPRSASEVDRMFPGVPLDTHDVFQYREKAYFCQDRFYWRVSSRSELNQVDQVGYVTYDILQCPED
Text: MMP-9 was purified by using a combination of procedures described in the method descrived in Y. Okada et al. (Yasunori Okada, Yukio Gonoji, Katsumi Naka, Katsuro Tomita, Isao Nakanishi, Kazushi Iwata and Taro Hayakawa: Matrix metalloproteinase 9 (92-kDa gelatinase/type IV collagenase) from HT1080 human fibrosarcoma cells. Purification and activation of the precursor and enzymic properties. J. Biol. Chem., 267 (1992) 21712-21719 and the other method (1) Yasunori Okada, Tatsuhisa Morodomi, Jan J, Enghild, Ko Suzuki, Atsushi Yasui, Isao Nakanishi, Guy Salvesen and Hideaki Nagase: Matrix metalloproteinase 2 from human rheumatoid synovial fibroblasts. Purification and activation of the precursor and enzymic properties. Eur. J. Biochem. 194 (1990) 721-730 or (2) Robin V Ward, Rosalind M Hembry, John J Reynolds and Gillian Murphy: The purification of tissue inhibitor of metalloproteinase-2 from its 72 kDa progelatinase complex. Biochem. J. 278 (1991) 179-187. Briefly, human fibrosarcoma ATCC HT1080 cell line was cultured to confluent in Dulbecco's Modified Medium (DMEM) containing 10% fetal-calf serum (FCS) at 37° C. for 48 hours (5%). Further, Confluent Cell was cultured in DMEM removed FCS (2nd). To obtain MMP-9, Phorbol-12-myristate-13-acetate (TPA) was added to this DMEM medium at a concentration of 50 ng/ml. The TPA treated medium was centrifuged at 3000 rpm for 15 min and the supernatant was concentrated to 450 ml by a Toyo-Roshi UP-20 apparatus with an ultrafiltration membrane. Then, this concentrated solution was purified by Gelatin-Sepharose and Concanavalin A-Sepharose. The pool containing MMP-9 was dialyzed, concentrated (Toyo-Roshi UP-20) and applied to columns of Sephacryl S-200 and Green A matrix for the separation from TIMP. The obtained Procollagenase was activated by TPCK-Trypsin (final conc. 3 μg/μl reaction mix.) for the assay.
as §1, §2, §3, §4, §5, §6, §7, §8, §9

Compound	IC50 [1] [nM]	IC50 [2] [nM]	melting point
Cc1ccc(C#Cc2ccc(S(=O)(=O)N[C@H](Cc3c[nH]c4cccc(O)c34)C(=O)O)s2)cc1 [Compound A-4]	0.768	24.3	
O=C(O)[C@H](Cc1c[nH]c2ccc(F)cc12)NS(=O)(=O)c1ccc(-c2ccc(N3CCCC3)cc2)s1 [Compound A-10]	4.04	12	
COc1ccc2[nH]cc(C[C@@H](NS(=O)(=O)c3ccc(C#Cc4ccc(C)cc4)s3)C(=O)O)c2c1 [Compound A-2]	10.6	15.6	
Cc1ccc(C#Cc2ccc(S(=O)(=O)N[C@H](Cc3c[nH]c4c(O)cccc34)C(=O)O)s2)cc1 [Compound A-5]	1.21	6.49	
COc1ccc2[nH]cc(C[C@@H](NS(=O)(=O)c3ccc(-c4ccc(N(C)C)cc4)s3)C(=O)O)c2c1 [Compound A-8]	0.617	6.66	
Cc1ccc(C#Cc2ccc(S(=O)(=O)N[C@@H](Cc3c[nH]c4ccc(F)cc34)C(=O)O)s2)cc1 [Compound A-6]	90.8	848	
Cc1ccc(C#Cc2ccc(S(=O)(=O)N[C@H](Cc3c[nH]c4ccc(O)cc34)C(=O)O)s2)cc1 [Compound A-1]	0.223	2.44	200 to 202 °C (dec.)
O=C(O)[C@H](Cc1c[nH]c2ccc(F)cc12)NS(=O)(=O)c1ccc(-c2nnn(-c3ccccc3)n2)cc1 [Compound A-12]	85.8	1420	
O=C(O)[C@@H](Cc1c[nH]c2ccc(F)cc12)NS(=O)(=O)c1ccc(-c2ccc(N3CCCC3)cc2)s1 [Compound A-9]	0.137	0.534	
COc1ccc(-n2nnc(-c3ccc(S(=O)(=O)N[C@H](Cc4c[nH]c5ccc(OC)cc45)C(=O)O)cc3)n2)cc1 [Compound A-11]	5.77	16	
COc1cccc2[nH]cc(C[C@@H](NS(=O)(=O)c3ccc(C#Cc4ccc(C)cc4)s3)C(=O)O)c12 [Compound A-3]	22.8	174	
